Laboratory results: article PMC11029812, “Liver-targeted polymeric prodrugs delivered subcutaneously improve tafenoquine therapeutic window for malaria radical cure” (Science Advances, 2024)
Like-named read-outs stand apart in the source and are kept apart here.

Key:
[1] = Tissue pharmacokinetics of released TQ and its metabolites in liver, plasma and urine (LC-MS/MS); assay type: in vivo, BALB/c mice
[2] = test system: P. berghei; assay: P. berghei luciferase and blood parasitemia model of causal prophylaxis; assay type: in vivo
Experimental: Efficacy studies in the P. berghei mouse model of causal prophylaxis were conducted at the Walter Reed Army Institute of Research, Experimental Therapeutics Branch as previously described ([46]).
Luciferase-expressing P. berghei ANKA sporozoites were obtained from laboratory-reared female Anopheles stephens mosquitoes as previously described ([46]). Sporozoites were recovered by the method of Li et al. ([62]) and quantitated using a hemocytometer. Sporozoites isolated from the same batch of mosquitoes were inoculated into mice on the same day to control biological variability in sporozoite preparations. Each animal was inoculated IV in the tail vein with approximately 10,000 sporozoites suspended in 0.1-ml volume on day 0.
Age-matched, 40 young adult (7-week-old) female C57BL/6 albino mice were purchased from Charles River Laboratories (Frederick, MD). On arrival, animals were acclimated for 7 days in quarantine. Mice were housed and maintained at a temperature range of 64° to 79°F, 34 to 68% relative humidity, and a 12-hour light/dark cycle. Food and water were provided ad libitum. Animals were fed a standard rodent maintenance diet. All animal use, care, and handling was conducted under an IACUC-approved animal use protocol in an Association for Assessment and Accreditation for Laboratory Animal Care International (AAALACi)–accredited facility with a Public Health Services Animal Welfare Assurance and in compliance with the Animal Welfare Act and other federal statutes and regulations relating to laboratory animals.
TQ was dissolved at a stock concentration of 1 mg/ml in 25% hydroxy-β-cyclodextrin acidified to pH 5 with acetic acid and diluted in DPBS for final dosing solutions. Polymers for parenteral administration were prepared in DPBS at the final dosing concentrations. All drug concentrations were calculated per the free base molecular weights of TQ. TQ parent compounds were administered intragastrically via an intragastric feeder tube. Vehicle groups (0.1 ml of DPBS) and polymer groups were administered SC in the right flank. Free TQ, vehicle, and polymers were given as a single dose on day −1. In this model, the pSVCTQ doses studied were 5.0, 7.5, or 10 mg/kg TQ equivalent.
Whole-body IVIS imaging of bioluminescence activity from luciferase-expressing P. berghei–infected mice was performed using a PerkinElmer IVIS Spectrum. Mice were evaluated at 24, 48, and 72 hours after sporozoite inoculation to determine liver- and blood-stage malaria infection. Mice received luciferin (150 mg/kg, Gold Biotechnology, St. Louis, MO) intraperitoneally in a maximal volume of 150 μl. Three minutes after luciferin administration, the mice were anesthetized with inhaled isoflurane and positioned ventral side up in the IVIS Spectrum on a 37°C platform. The mice continued to receive isoflurane through nose cone delivery. The camera exposure times used were 1 or 5 min for the 24-, 48-, and 72-hour time points with f-stop = 1, and the large binning setting was chosen. Quantitative analysis of bioluminescence emitted from whole bodies or […] (ROI) were determined by measuring the luminescence signal intensity in photons per second using the ROI settings of the Living Image 3.0 software. The ROI, expressed in total flux of photons, was set to measure the abdominal area at the location of the liver from whole-body imaging ([62]). The data were generally found to fit a normal distribution. Means and SDs of photon measurement were calculated.
On days 5 to 31 after infection, mice were analyzed for blood-stage infections by quantitation of malaria parasites in erythrocytes by flow cytometry. Blood (3 μl) from the mouse tail was collected directly into 0.3 ml of 1% heparinized isotonic buffer (PBS saline). After addition of 1 ml of 0.04% of glutaraldehyde for fixation, the samples were incubated at 4°C for 60 min. Cells were centrifuged at 450g for 5 min. […]

[3] = Hemotoxicity in humanized G6PD deficiency mouse model; assay type: in vivo, human RBCs engrafted in NOD/SCID mice; conditions: female, NOD/SCID (NOD.CB17-Prkdcscid/J), mouse, in vivo; curve fit of Fig. 4B; single dose; pSVCTQ SC, TQ oral; day 7; read-out: Dose resulting in 50% hemolysis (TD50)
Experimental: (§1) Following procedures as previously published ([46]), hemotoxicity studies using huRBC engraftments were conducted in mice.
(§2) Female (8 to 9 weeks) NOD.CB17-Prkdcscid/J [nonobese diabetic severe combined immunodeficient (NOD/SCID)] mice were purchased from The Jackson Laboratory (Bar Harbor, ME). The animals were housed in a cage maintained in a specific pathogen–free animal facility and were acclimated for 1 week in the facility before initiation of experimental procedures. Sterile food and water were provided ad libitum throughout the study as previously described ([64]). All animal studies were performed under IACUC-approved protocols and adhere to the principles stated in the Guide for the Care and Use of Laboratory Animals ([100]).
(§3) Polymer solutions for SC administration were prepared in DPBS at the final dosing concentrations. All drug concentrations were calculated per the free base molecular weights of TQ. The TQ parent compound was administered intragastrically via an intragastric feeder tube. Polymers and vehicle were administered SC in the right flank. TQ, pSVCTQ, and vehicle were given as a single dose on day 0. In this model, the TQ dose studied was 10 mg/kg; pSVCTQ was tested at doses of 2.5, 5.0, or 10 mg/kg TQ equivalent.
(§4) The percentage of huRBCs at the end of this period was analyzed by flow cytometry to evaluate glycophorin A (huRBCs) and Ter119 (mouse RBCs) circulating in peripheral blood. […] The G6PD-deficient huRBC NOD/SCID mice were dosed with pSVCTQ or parent drug prepared as described above, with three to four mice per group. On days 4 and 7 following dosing, huRBC levels were assessed again by flow cytometry (glycophorin^+Ter119^−), along with the percentage of murine reticulocytes (CD71^+Ter119) as an additional marker of hemolytic toxicity. Mice were euthanized on day 7 following initiation of treatment.
(§5) Microsoft Excel and GraphPad Prism were used throughout the PK analysis to process the data, calculate pharmacokinetic parameters, and yield statistical information. A linear regression model was produced using the least squares fitting method with 1/x^2 scaling for the assay calibrators. […] For the G6PD deficiency model, data analysis was performed using GraphPad Prism (GraphPad Software). […] An F test comparing the two dose-response curves was also run. For all other work, a combination of Microsoft Excel and GraphPad Prism was used.

[4] = test system: G6PD-deficient huRBCs; assay: as above; assay type: in vivo, human RBCs engrafted in NOD/SCID mice; conditions: single dose day 0; pSVCTQ SC, TQ oral; A− G6PD-deficient donor
Experimental: as §1, §2, §3, §4, §5

[5] = parameters: method as in PMID 28749773; conditions: G6PD-deficient cohort, cited from earlier work
[6] = Polymer biodistribution (IVIS imaging) and liver hepatocyte localization (histology); assay type: in vivo; conditions: mice
Experimental: Mice were dosed SC with rhodamine-labeled pSVCTQ at the dose of equivalent 25 mg/kg TQ, which were then euthanized at 8 hours after injection. Selected organs, including liver, kidneys, lungs, spleen, heart, and brain, were harvested and washed with PBS before imaging studies (IVIS) using fluorescent mode at (excitation/emission: 530/585 nm), Caliper Xenogen IVIS (PerkinElmer, Hopkinton, MA). The radiant efficiency emitted from the organs in each mouse was subsequently quantified using Xenogen Living Image software. Mice treated with PBS served as controls (fig. S12). Three mice were included in each group.
Rhodamine-labeled pSVCTQ was formulated in PBS and SC administered in mice at a dose of 25 mg/kg TQ equivalent. Mice receiving PBS served as controls. The liver was harvested at 8 hours after injection and immediately fixed in 10% neutral buffered formalin at 4°C for 4 hours. After washing three times in cold PBS, the liver tissue was sunk in 15% sucrose solution for 24 hours and then in 30% sucrose solution for 24 hours at 4°C. The sucrose solution was prepared in DPBS (1×, with Mg^2+ and Ca^2+). The liver tissue was then blotted with paper tissue and embedded in an optimal cutting temperature compound. The sample was frozen in prechilled isopentane in liquid nitrogen and stored at −80°C. The 5-μm-thick sections were prepared using CryoStat at −20°C. Alexa Fluor 488 phalloidin was diluted 1:50 in PBS and used to counterstain the sections for 1 hour at room temperature (RT) to visualize cell outlines. The cell nuclei were counterstained with DAPI (blue) for 5 min at RT. Sections were imaged using an epi-fluorescent microscope (Nikon Eclipse 90i and Hamamatsu C10600 Camera at 20× magnification) using GFP-B HYQ (excitation/emission: 450/550 nm) Texas red HYQ (excitation/emission: 535/580 nm) and ultraviolet illumination (excitation/emission: 350/470 nm).

[7] = female, BALB/c, mouse, in vivo, po, 10 mg/kg
[8] = 8 hours after SC 25 mg/kg TQ equivalent

COc1cc(C)c2c(Oc3cccc(C(F)(F)F)c3)c(OC)cc(NC(C)CCCN)c2n1 (stereo not shown) [TQ, tafenoquine]
AUC [1, 7]: 22.4 µg·h/mL
AUC, liver [1, 7]: 1404 μg/g liver*hour
Cmax [1, 7]: 0.38 µg/mL
Cmax, liver [1, 7]: 17 μg/g liver
Kp [1, 7]: 62.8
Tmax [1, 7]: 8 h
Mice survived ([2]; 10 mg/kg PO, single dose day −1, 31 days, n = 5): 2/5
Blood parasitemia suppression ([2]; 10 mg/kg oral, single dose day −1): partial suppression of parasitemia
IVIS signal during days 1 to 3 ([2]; 10 mg/kg single dose day −1, pSVCTQ SC, TQ oral): completely suppressed
TD50 at 7 days [3]: 5 mg/kg
Median effective dose (dose that results in 50% huRBC loss by day 7 relative to vehicle control) [4]: 4.7 mg/kg
Hemolytic toxicity (decreases in hemoglobin and hematocrit) ([5]; 100-mg dose): did not produce hemotoxicity
Hemolytic toxicity (decreases in hemoglobin and hematocrit) ([5]; 300-mg dose): dose-limiting

p(GMA-co-SVATQMA) [tri-antennary GalNAc polymeric prodrug]
Liver AUC drug exposure compared with the copolymer ([1]; SC 10 mg/kg dose, mice (fig. S15C)): equivalent to the copolymer

p(GalNAc-MA-co-SVCTQ-MA-co-RheMA) [rhodamine-labeled pSVCTQ]
Fluorescence in lungs, heart, spleen, and brain (IVIS) [6, 8]: little fluorescence intensity
Fluorescence in the kidneys (IVIS) [6, 8]: low level of fluorescence
Liver accumulation (IVIS fluorescence) [6, 8]: accumulate in the liver with high selectivity
Liver penetration / hepatocyte distribution (cross-sectional histology) ([6]; liver 8 hours after SC 25 mg/kg TQ equivalent): present in every hepatocyte

p(GalNAc-MA-co-VCTQ-MA) [pVCTQ]
Liver:plasma AUC ratio ([1]; 25 mg/kg, IV, mice): 120
AUC, liver ([1]; TQ in liver, 25 mg/kg TQ equivalent, IV, mice, t = 0 to 336 hours): 2725 μg/g liver*hour
Cmax, liver ([1]; TQ in liver, 25 mg/kg, IV, mice): 48 μg/g liver

p(GalNAc-co-MSEMA-co-SVCTQMA) [lower GalNAc polymeric prodrug design]
PK properties compared with pSVCTQ ([1]; TQ in liver and plasma after SC 10 mg/kg dose, mice (fig. S15B)): preserved much of the PK properties
